Two compounds from PMC10372819 (Acta Pharmaceutica Sinica. B, 2023) can be followed below.

The target of one data set is hERG (Homo sapiens, UniProt Q12809). Kind of data set: hERG channel Qpatch assay in CHO-hERG cells. Conditions: at 40 μmol/L. Format: cell-based.
Data set [1] in a line: Liver microsomal stability, monkey. The format is in vitro ADME.
A short description of data set [2]: Liver microsomal stability, dog. Format: in vitro ADME. For orientation: Microsomes from liver hold many membrane-bound enzymes, among them those of drug oxidation.
Data set [3] is described as follows: Liver microsomal stability, human. Format: in vitro ADME.
Data set [4] can be described thus: In vivo pharmacokinetics in Sprague-Dawley rats. Conditions: male, rat, plasma.
In a further data set the test system is mice. Kind of data set: Acute toxicity assay and HE staining in healthy mice. The format is in vivo.
For data set [5], the system named is WT HIV-1. Conditions: Selectivity index CC50/EC50 (WT).
For another data set, the target named is WT HIV-1 RT (Human immunodeficiency virus type 1 group M subtype B, UniProt P03366). The experiment in a line: biochemical.
For data set [6], the system named is WT HIV-1. The experiment in a line: microbe, parasite or virus in culture. Conditions: Human immunodeficiency virus 1, MT4, read-out: WT EC50.
The test system of another data set is HIV-1 mutant L100I. Kind of data set: microbe, parasite or virus in culture. Conditions: Human immunodeficiency virus 1, MT4, read-out: EC50 L100I.
Another data set relates to HIV-1 mutant K103N. Kind of data set: microbe, parasite or virus in culture. Conditions: Human immunodeficiency virus 1, MT4, read-out: EC50 K103N.
In another data set the test system is HIV-1 mutant Y188L. Kind of data set: microbe, parasite or virus in culture. Conditions: Human immunodeficiency virus 1, MT4, read-out: EC50 Y188L.
Another data set relates to HIV-1 mutant E138K. The experiment in a line: microbe, parasite or virus in culture. Conditions: Human immunodeficiency virus 1, MT4, read-out: EC50 E138K.
A short description of data set [7]: Cytotoxicity in uninfected. Conditions: human, mock-infected (uninfected) MT-4 cells, CC50, uninfected MT-4 cells, MTT.
The next data set relates to MT-4 cells. Kind of data set: Cytotoxicity in uninfected. Conditions: uninfected MT-4 cells, MTT.
Another data set deals with CYP2D6 (Homo sapiens, UniProt P10635). Kind of data set: biochemical.
Setting [8] is: MF%>70% excellent, 30-70% good, <30% poor.

Chain of hERG (Q12809 whole entry): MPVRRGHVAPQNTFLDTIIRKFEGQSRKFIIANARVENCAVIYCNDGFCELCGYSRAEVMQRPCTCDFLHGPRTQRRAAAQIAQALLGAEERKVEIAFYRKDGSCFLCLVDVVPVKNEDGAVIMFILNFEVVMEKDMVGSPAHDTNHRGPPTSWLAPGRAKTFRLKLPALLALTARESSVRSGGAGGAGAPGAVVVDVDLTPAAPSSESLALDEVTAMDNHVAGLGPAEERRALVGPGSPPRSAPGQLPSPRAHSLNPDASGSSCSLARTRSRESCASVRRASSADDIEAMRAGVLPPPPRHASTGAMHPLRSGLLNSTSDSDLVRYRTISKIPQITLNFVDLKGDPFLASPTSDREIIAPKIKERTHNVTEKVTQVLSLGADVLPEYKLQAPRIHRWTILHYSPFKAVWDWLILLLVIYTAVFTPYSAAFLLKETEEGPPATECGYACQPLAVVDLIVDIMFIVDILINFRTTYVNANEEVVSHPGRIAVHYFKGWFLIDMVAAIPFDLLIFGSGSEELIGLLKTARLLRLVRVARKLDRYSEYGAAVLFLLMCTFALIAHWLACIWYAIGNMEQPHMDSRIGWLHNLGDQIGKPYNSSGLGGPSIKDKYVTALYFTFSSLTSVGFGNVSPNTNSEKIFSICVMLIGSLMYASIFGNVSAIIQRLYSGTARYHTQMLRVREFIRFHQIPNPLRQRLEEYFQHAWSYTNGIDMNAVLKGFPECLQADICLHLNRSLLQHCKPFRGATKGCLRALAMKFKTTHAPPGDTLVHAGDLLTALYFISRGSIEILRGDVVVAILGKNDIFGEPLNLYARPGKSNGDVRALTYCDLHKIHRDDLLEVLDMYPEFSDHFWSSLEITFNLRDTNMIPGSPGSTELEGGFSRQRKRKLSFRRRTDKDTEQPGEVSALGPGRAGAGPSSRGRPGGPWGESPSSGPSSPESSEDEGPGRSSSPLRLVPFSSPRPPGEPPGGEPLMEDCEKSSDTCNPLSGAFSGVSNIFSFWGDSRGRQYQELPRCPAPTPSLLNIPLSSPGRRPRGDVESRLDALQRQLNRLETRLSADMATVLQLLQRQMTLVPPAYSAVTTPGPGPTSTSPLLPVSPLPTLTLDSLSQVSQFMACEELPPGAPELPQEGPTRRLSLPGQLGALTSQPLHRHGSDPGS
Chain of CYP2D6 (P10635 whole entry): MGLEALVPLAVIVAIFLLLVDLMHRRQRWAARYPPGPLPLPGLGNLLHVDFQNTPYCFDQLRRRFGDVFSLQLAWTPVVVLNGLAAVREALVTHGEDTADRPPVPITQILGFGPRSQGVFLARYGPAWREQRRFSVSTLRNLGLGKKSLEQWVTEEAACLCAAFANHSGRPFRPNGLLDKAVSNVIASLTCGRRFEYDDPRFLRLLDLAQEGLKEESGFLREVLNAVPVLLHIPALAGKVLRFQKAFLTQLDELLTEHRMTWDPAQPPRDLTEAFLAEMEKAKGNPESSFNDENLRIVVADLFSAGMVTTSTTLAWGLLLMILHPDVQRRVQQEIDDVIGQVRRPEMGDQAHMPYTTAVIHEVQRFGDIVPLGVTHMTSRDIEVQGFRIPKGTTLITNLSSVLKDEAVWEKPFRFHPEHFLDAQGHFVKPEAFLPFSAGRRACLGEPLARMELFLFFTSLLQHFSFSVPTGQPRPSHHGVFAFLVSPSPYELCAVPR

The half-life is the time in which the quantity being followed falls by half. The term CLint scaled denotes the rate of metabolic loss divided by the concentration. The term Cmax denotes the highest concentration seen after dosing. One may read the Tmax as the time at which the peak concentration occurs. Usually AUC stands for concentration integrated over time. By MRT is commonly meant the average time that molecules of a dose stay in the body. Usually bioavailability stands for dose-corrected exposure relative to a reference, in per cent. Broadly, the IC50 is the midpoint of a concentration-inhibition curve. In general, EC50 refers to the midpoint of the concentration-response curve. For orientation: CC50 means the concentration giving 50% cytotoxicity. For the compound `N#Cc1ccc(Nc2ncc(CO)c(Oc3c(F)cc(-c4ccc(C#N)cc4)cc3F)n2)cc1` [9g, 4′-((2-((4-Cyanophenyl)amino)-5-(hydroxymethyl)pyrimidin-4-yl)oxy)-3′,5′-difluoro-[1,1′-biphenyl]-4-carbonitrile], the “inhibition of hERG” value at hERG is on record as “no significant inhibition”. Besides, the MF is listed as 28.1% in data set [1] (setting [8]); 42.2% in data set [2] (setting [8]); 96.3% in data set [3] (human, MF%>70% excellent, 30-70% good, <30% poor). The half-life was 0.435 h in [1] (monkey liver microsomes); 1.19 h in data set [2] (dog liver microsomes); 45.9 h in [3] (human, human liver microsomes); 1.5 ± 0.14 h in data set [4] (iv, 1 mg/kg); 5.21 ± 3.02 h in data set [4] (po, 10 mg/kg). Moreover, the CLint scaled in data set [1] (monkey liver microsomes, Clint(hep)) amounted to 122 mL/min/kg; in data set [1] (monkey liver microsomes, Clint(mic), monkey liver microsome) it was 80.5 mL/min/kg; in data set [2] (dog liver microsomes, Clint(hep)) it was 179 mL/min/kg; in [2] (dog liver microsomes, Clint(mic), dog liver microsome), 29.5 mL/min/kg; in data set [3] (human, human liver microsomes, Clint(hep)), 56.2 mL/min/kg; in data set [3] (human, human liver microsomes, Clint(mic), human liver microsome) it was 0.763 mL/min/kg. The “t1/2 in human liver microsomes, fold longer than that of 5” value in data set [3] (relative to 5 (t1/2 = 96 min)) is recorded as “about 29 fold”. Also, the Cmax in [4] (iv, 1 mg/kg) is 296 ± 79.4 ng/mL; in data set [4] (po, 10 mg/kg), 39.3 ± 8.04 ng/mL. For the same compound, the Tmax in [4] (iv, 1 mg/kg) worked out at 0.08 h; in [4] (po, 10 mg/kg), 0.83 ± 0.29 h. For the same compound, the AUC stood at 244 ± 24.5 ng·h/mL in data set [4] (iv, 1 mg/kg, AUC0‒t, 1.0 mg/kg i.v.); 247 ± 25.8 ng·h/mL in data set [4] (iv, 1 mg/kg, AUC0‒∞, 1.0 mg/kg i.v.); 159 ± 48.7 ng·h/mL in data set [4] (po, 10 mg/kg, AUC0‒t, 10.0 mg/kg p.o.); 198 ± 38.6 ng·h/mL in data set [4] (po, 10 mg/kg, AUC0‒∞, 10.0 mg/kg p.o.). For the same compound, the MRT in [4] (iv, 1 mg/kg, MRT0‒t, 1.0 mg/kg i.v.) stood at 1.19 ± 0.16 h; in data set [4] (iv, 1 mg/kg, MRT0‒∞, 1.0 mg/kg i.v.), 1.33 ± 0.21 h; in data set [4] (po, 10 mg/kg, MRT0‒t, 10.0 mg/kg p.o.), 3.91 ± 2.38 h; in data set [4] (po, 10 mg/kg, MRT0‒∞, 10.0 mg/kg p.o.), 6.8 ± 2.79 h. This compound also showed a bioavailability in data set [4] (po, 10 mg/kg) of 8.01 ± 0.02%. Also, the body weight result in the data set with mice (mice (male and female), 2 g/kg, within two weeks) is “increased gradually”. The behavioral abnormalities result with mice (mice, 2 g/kg) is reported as “No behavioral abnormalities”. Moreover, the “pathological injury (HE staining)” value in the data set on mice (mice, 2 g/kg, six organs) is “no obvious pathological injury”. For the same compound, in the data set with mice (mice, single oral administration of 2 g/kg), the tolerability result is given as “well tolerated”. Also, in the data set on WT HIV-1 [5], the SI is 256,438. The IC50 at WT HIV-1 RT is 21 ± 1 nM. For the same compound, the EC50 with WT HIV-1 [6] stood at 0.9 ± 0.1 nM; in the data set with HIV-1 mutant L100I, 8.2 ± 1.4 nM; in the data set with HIV-1 mutant K103N, 1.9 ± 0.2 nM; in the data set with HIV-1 mutant Y188L, 161 ± 27.6 nM; with HIV-1 mutant E138K, 3.5 ± 0.8 nM. The midpoint of cytotoxicity in data set [7], the CC50 at 5 days, lay at 264000 nM. The CC50 in the data set on MT-4 cells came to 225000 ± 3900 nM.

As to `COc1ccc2c(c1)[C@]13CCCC[C@@H]1[C@H](C2)N(C)CC3` [Dextromethorphan], the IC50 on CYP2D6 was 39.7 nM.
